Measured values as given in patent US6914045B2, “Glycopeptide antibiotics” (Wyeth Holdings Corporation, priority 2001, dated 2005).
In brackets after ≈: the same amount, converted by molar mass.

Tests used:
Test in all cases: in vitro antibacterial evaluation, MIC by broth dilution
Format in all cases: cell-based
Enterococcus sp. = settings: broth dilution, 18 hours at 35° C.
Procedure, shortened: (§1)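 Test organisms, which included recent clinical isolates resistant to methicillin, penicillin and/or vancomycin, were inoculated at 5×10^5 CFU/mL into Muller-Hinton II […] containing antibiotic at 64-0.06 μg/mL. Minimum inhibitory concentrations were then read as the lowest level inhibiting growth.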

Streptococcus sp. = settings: broth dilution, 18 hours at 35° C.
Procedure, shortened: as §1

Escherichia coli = settings: 18 hours at 35° C.
Procedure, shortened: as §1

Staphylococcus sp. = settings: broth dilution, 18 hours at 35° C.
Procedure, shortened: as §1

MIC Enterococcus avium (GC 4558) (Enterococcus sp.; Enterococcus avium (GC 4558)): 8 µg/mL (≈ 5.76 µM)
MIC Enterococcus faecalis (ATCC 29212) (Enterococcus sp.; Enterococcus faecalis (ATCC 29212)): 8 µg/mL (≈ 5.76 µM)
MIC Enterococcus faecalis (GC 2242) (Enterococcus sp.; Enterococcus faecalis (GC 2242)): 4 µg/mL (≈ 2.88 µM)
MIC Enterococcus faecalis (GC 2691) (Enterococcus sp.; Enterococcus faecalis (GC 2691)): 8 µg/mL (≈ 5.76 µM)
MIC Enterococcus faecalis (GC 3059) (Enterococcus sp.; Enterococcus faecalis (GC 3059)): 8 µg/mL (≈ 5.76 µM)
MIC Enterococcus faecalis (GC 4552) (Enterococcus sp.; Enterococcus faecalis (GC 4552)): 8 µg/mL (≈ 5.76 µM)
MIC Enterococcus faecalis (GC 4553) (Enterococcus sp.; Enterococcus faecalis (GC 4553)): 8 µg/mL (≈ 5.76 µM)
MIC Enterococcus faecalis (GC 4554) (Enterococcus sp.; Enterococcus faecalis (GC 4554)): 8 µg/mL (≈ 5.76 µM)
MIC Enterococcus faecalis (GC 6189) (Enterococcus sp.; Enterococcus faecalis (GC 6189)): 4 µg/mL (≈ 2.88 µM)
MIC Enterococcus faecium (GC 2243) (Enterococcus sp.; Enterococcus faecium (GC 2243)): 8 µg/mL (≈ 5.76 µM)
MIC Enterococcus faecium (GC 4556) (Enterococcus sp.; Enterococcus faecium (GC 4556)): 8 µg/mL (≈ 5.76 µM)
MIC Enterococcus faecium (GC 4557) (Enterococcus sp.; Enterococcus faecium (GC 4557)): 2 µg/mL (≈ 1.44 µM)
MIC Enterococcus faecalis (ATCC 29212) (Enterococcus sp.; strain ATCC 29212): 8 µg/mL (≈ 5.76 µM)
MIC Enterococcus faecalis (GC 2242) (Enterococcus sp.; strain GC 2242): 4 µg/mL (≈ 2.88 µM)
MIC Enterococcus faecium (GC 2243) (Enterococcus sp.; strain GC 2243): 8 µg/mL (≈ 5.76 µM)
MIC Enterococcus faecalis (GC 2691) (Enterococcus sp.; strain GC 2691): 8 µg/mL (≈ 5.76 µM)
MIC Enterococcus faecalis (GC 3059) (Enterococcus sp.; strain GC 3059): 8 µg/mL (≈ 5.76 µM)
MIC Enterococcus faecalis (GC 4552) (Enterococcus sp.; strain GC 4552): 8 µg/mL (≈ 5.76 µM)
MIC Enterococcus faecalis (GC 4553) (Enterococcus sp.; strain GC 4553): 8 µg/mL (≈ 5.76 µM)
MIC Enterococcus faecalis (GC 4554) (Enterococcus sp.; strain GC 4554): 8 µg/mL (≈ 5.76 µM)
MIC Enterococcus faecium (GC 4556) (Enterococcus sp.; strain GC 4556): 8 µg/mL (≈ 5.76 µM)
MIC Enterococcus faecium (GC 4557) (Enterococcus sp.; strain GC 4557): 2 µg/mL (≈ 1.44 µM)
MIC Enterococcus avium (GC 4558) (Enterococcus sp.; strain GC 4558): 8 µg/mL (≈ 5.76 µM)
MIC Enterococcus faecalis (GC 6189) (Enterococcus sp.; strain GC 6189): 4 µg/mL (≈ 2.88 µM)
MIC Streptococcus agalactiae (GC 4564) (Streptococcus sp.; Streptococcus agalactiae (GC 4564)): <0.5 µg/mL
MIC Streptococcus pneumoniae (ATCC 6301) (Streptococcus sp.; Streptococcus pneumoniae (ATCC 6301)): <0.5 µg/mL
MIC Streptococcus pneumoniae (GC 1894) (Streptococcus sp.; Streptococcus pneumoniae (GC 1894)): <0.5 µg/mL
MIC Streptococcus pneumoniae (GC 4565) (Streptococcus sp.; Streptococcus pneumoniae (GC 4565)): 4 µg/mL (≈ 2.88 µM)
MIC Streptococcus pyogenes (GC 4563) (Streptococcus sp.; Streptococcus pyogenes (GC 4563)): <0.5 µg/mL
MIC Streptococcus pneumoniae (ATCC 6301) (Streptococcus sp.; strain ATCC 6301): <0.5 µg/mL
MIC Streptococcus pneumoniae (GC 1894) (Streptococcus sp.; strain GC 1894): <0.5 µg/mL
MIC Streptococcus pyogenes (GC 4563) (Streptococcus sp.; strain GC 4563): <0.5 µg/mL
MIC Streptococcus agalactiae (GC 4564) (Streptococcus sp.; strain GC 4564): <0.5 µg/mL
MIC Streptococcus pneumoniae (GC 4565) (Streptococcus sp.; strain GC 4565): 4 µg/mL (≈ 2.88 µM)
MIC Escherichia coli (ATCC 25922) (Escherichia coli; strain ATCC 25922): 64 µg/mL (≈ 46.1 µM)
MIC Escherichia coli (GC 4559) (Escherichia coli; strain GC 4559): 32 µg/mL (≈ 23 µM)
MIC Escherichia coli (GC 4560) (Escherichia coli; strain GC 4560): <0.5 µg/mL
MIC Staphylococcus aureus (ATCC 29213) (Staphylococcus sp.): 1 µg/mL (≈ 0.72 µM)
MIC Staphylococcus aureus (GC 1131) (Staphylococcus sp.): 2 µg/mL (≈ 1.44 µM)
MIC Staphylococcus aureus (GC 3051) (Staphylococcus sp.): 1 µg/mL (≈ 0.72 µM)
MIC Staphylococcus aureus (GC 3053) (Staphylococcus sp.): 4 µg/mL (≈ 2.88 µM)
MIC Staphylococcus aureus (GC 4541) (Staphylococcus sp.): 1 µg/mL (≈ 0.72 µM)
MIC Staphylococcus aureus (GC 4542) (Staphylococcus sp.): 2 µg/mL (≈ 1.44 µM)
MIC Staphylococcus aureus (GC 4544) (Staphylococcus sp.): 2 µg/mL (≈ 1.44 µM)
MIC Staphylococcus aureus (GC 4545) (Staphylococcus sp.): 1 µg/mL (≈ 0.72 µM)
MIC Staphylococcus aureus (GC 1131) (Staphylococcus sp.; inoculum 5×10^5 CFU/mL, strain GC 1131): 2 µg/mL (≈ 1.44 µM)
MIC Staphylococcus aureus (ATCC 29213) (Staphylococcus sp.; strain ATCC 29213): 1 µg/mL (≈ 0.72 µM)
MIC Staphylococcus aureus (GC 3051) (Staphylococcus sp.; strain GC 3051): 1 µg/mL (≈ 0.72 µM)
MIC Staphylococcus aureus (GC 3053) (Staphylococcus sp.; strain GC 3053): 4 µg/mL (≈ 2.88 µM)
MIC Staphylococcus aureus (GC 4541) (Staphylococcus sp.; strain GC 4541): 1 µg/mL (≈ 0.72 µM)
MIC Staphylococcus aureus (GC 4542) (Staphylococcus sp.; strain GC 4542): 2 µg/mL (≈ 1.44 µM)
MIC Staphylococcus aureus-SMITH (GC 4543) (Staphylococcus sp.; strain GC 4543): 1 µg/mL (≈ 0.72 µM)
MIC Staphylococcus aureus (GC 4544) (Staphylococcus sp.; strain GC 4544): 2 µg/mL (≈ 1.44 µM)
MIC Staphylococcus aureus (GC 4545) (Staphylococcus sp.; strain GC 4545): 1 µg/mL (≈ 0.72 µM)
MIC Coagulase Negative Staphylococcus (GC 4547) (Staphylococcus sp.; strain GC 4547): 1 µg/mL (≈ 0.72 µM)
MIC Coagulase Negative Staphylococcus (GC 4548) (Staphylococcus sp.; strain GC 4548): <0.5 µg/mL
MIC Coagulase Negative Staphylococcus (GC 4549) (Staphylococcus sp.; strain GC 4549): 1 µg/mL (≈ 0.72 µM)
MIC Coagulase Negative Staphylococcus (GC 4551) (Staphylococcus sp.; strain GC 4551): 1 µg/mL (≈ 0.72 µM)
MIC Coagulase Negative Staphylococcus (GC 6257) (Staphylococcus sp.; strain GC 6257): 1 µg/mL (≈ 0.72 µM)
MIC Staphylococcus aureus-SMITH (GC 4543) (Staphylococcus sp.; strain SMITH GC 4543): 1 µg/mL (≈ 0.72 µM)
Compound: CC(c1ccccc1)C1NC(=O)CNC(=O)C(CO)NC(=O)C(C(O)C2CNC(=N)N2C2OC(CO)C(O)C(O)C2O)NC(=O)C(C(O)C2CNC(=N)N2)NC(=O)C(Cc2ccc(OC3OC(CO)C(OC4OC5COC(c6ccsc6)OC5C(O)C4O)C(O)C3O)cc2)NC1=O (stereo not shown) [Example 133]
MIC Staphylococcus haemolyticus (GC 4546) (Staphylococcus sp.; strain GC 4546): 1 µg/mL (≈ 0.72 µM)
